Patent US10208074B2, “Pyrazole compounds and method for making and using the compounds” (Rigel Pharmaceuticals, Inc., priority 2015, dated 2019)
pEC50: −log10 of the molar value. Counter-ions that a name gives are not always drawn. Like-named read-outs stand apart in the source and are kept apart here.

Experiments:
IL-23 (p19/p40) = test: IL23-p19 ELISA, Dendritic, LPS (compound screening using DC cells); type: cell-based, Human; conditions: PBMC-derived DC cells, IFNγ primed, LPS 1 μg/ml, 18 hours, 10 pt, read-out: IL23-p19 ELISA, Dendritic, LPS, 10 pt, EC50
Outline: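 IL-23 in supernatants quantified by sandwich ELISA (anti-p19 capture, biotinylated anti-p40 detection, chemiluminescent readout) after 18 h LPS (1 μg/ml) stimulation. Cells were monocyte-derived DCs (GM-CSF/IL-4, 7 d), IFNγ-primed 24 h and given compound 1 h before LPS; viability by CellTiter Glo.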

IL-23p19 = test: LPS induced IL23p19 in THP-1 cells (with IFNγ primed) assay; type: cell-based, Human; conditions: THP-1 cells, IFNγ primed, LPS 1 ug/mL, 18 hours, 10 pt, read-out: IL23-p19 ELISA, THP1-IFNy, LPS, 10 pt EC50
Outline: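 Readout is secreted IL-23p19, quantified by chemiluminescent sandwich ELISA after 18 h LPS (1 ug/mL) stimulation of THP-1 cells that had been IFNγ-primed (50 ng/mL, ~18 h) and given compound 1 h beforehand at 37 °C. EC50 derived by curve fit; cytotoxicity tracked with Cell Titer Glo.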

pEC50 (IL-23 (p19/p40); Homo sapiens, 18 h) | pEC50 (IL-23p19; Homo sapiens, THP-1, 18 h) | pEC50 (IL-23p19) | pEC50 (IL-23p19; formate) | pEC50 (IL-23 (p19/p40); formate) | Compound
6.54 | 7.07 | – | – | – | COCCOCCn1cc(NC(=O)c2csc(-c3cn[nH]c3)n2)c(-c2nccs2)n1 [II-113, N-(1-(2-(2-methoxyethoxy)ethyl)-3-(thiazol-2-yl)-1H-pyrazol-4-yl)-2-(1H-pyrazol-4-yl)thiazole-4-carboxamide]
6.80 | 7.36 | – | – | – | O=C(Nc1cn(C2CCOC2)nc1-c1nccs1)c1csc(-c2cn[nH]c2)n1 (stereo not drawn) [II-115, 2-(1H-pyrazol-4-yl)-N-(1-(tetrahydrofuran-3-yl)-3-(thiazol-2-yl)-1H-pyrazol-4-yl)thiazole-4-carboxamide]
6.97 | – | 7.25 | – | – | CCN(CC)CCn1cc(NC(=O)c2csc(-c3cn[nH]c3)n2)c(-c2ccccn2)n1 [II-117, N-(1-(2-(diethylamino)ethyl)-3-(pyridin-2-yl)-1H-pyrazol-4-yl)-2-(1H-pyrazol-4-yl)thiazole-4-carboxamide]
6.67 | 6.96 | – | – | – | O=C(Nc1cn(CCOCCF)nc1-c1ccccn1)c1csc(-c2cn[nH]c2)n1 [II-118, N-(1-(2-(2-fluoroethoxy)ethyl)-3-(pyridin-2-yl)-1H-pyrazol-4-yl)-2-(1H-pyrazol-4-yl)thiazole-4-carboxamide]
5.93 | 6.18 | – | – | – | O=C(Nc1cn(Cc2ccccc2)nc1-c1ccccn1)c1csc(-c2cn[nH]c2)n1 [II-120, N-(1-benzyl-3-(pyridin-2-yl)-1H-pyrazol-4-yl)-2-(1H-pyrazol-4-yl)thiazole-4-carboxamide]
7.35 | 7.01 | – | – | – | O=C(Nc1cn(C2CCC2)nc1-c1ccccn1)c1csc(-c2cn[nH]c2)n1 [II-121, N-(1-cyclobutyl-3-(pyridin-2-yl)-1H-pyrazol-4-yl)-2-(1H-pyrazol-4-yl)thiazole-4-carboxamide]
6.52 | 6.67 | – | – | – | O=C(Nc1cn(CCOCC(F)F)nc1-c1ccccn1)c1csc(-c2cn[nH]c2)n1 [II-122, N-(1-(2-(2,2-difluoroethoxy)ethyl)-3-(pyridin-2-yl)-1H-pyrazol-4-yl)-2-(1H-pyrazol-4-yl)thiazole-4-carboxamide]
6.83 | 7.57 | – | – | – | O=C(Nc1cn(CC2CC(O)C2)nc1-c1ccccn1)c1csc(-c2cn[nH]c2)n1 (stereo not drawn) [II-123, N-(1-(((1r,3r)-3-hydroxycyclobutyl)methyl)-3-(pyridin-2-yl)-1H-pyrazol-4-yl)-2-(1H-pyrazol-4-yl)thiazole-4-carboxamide]
4.56 | 5.91 | – | – | – | CN(C)C(=O)n1cc(NC(=O)c2csc(-c3cn[nH]c3)n2)c(-c2ccccn2)n1 [II-125, N-(1-(dimethylcarbamoyl)-3-(pyridin-2-yl)-1H-pyrazol-4-yl)-2-(1H-pyrazol-4-yl)thiazole-4-carboxamide]
7.09 | 7.31 | – | – | – | [2H]C([2H])([2H])C([2H])([2H])O[C@H]1C[C@@H](n2cc(NC(=O)c3csc(-c4cn[nH]c4)n3)c(-c3ccccn3)n2)C1 [II-127, N-(1-((1s,3s)-3-(ethoxy-d5)cyclobutyl)-3-(pyridin-2-yl)-1H-pyrazol-4-yl)-2-(1H-pyrazol-4-yl)thiazole-4-carboxamide]
5.61 | 5.94 | – | – | – | CCN(CC)C(=O)n1cc(NC(=O)c2csc(-c3cn[nH]c3)n2)c(-c2ccccn2)n1 [II-128, N-(1-(diethylcarbamoyl)-3-(pyridin-2-yl)-1H-pyrazol-4-yl)-2-(1H-pyrazol-4-yl)thiazole-4-carboxamide]
7.05 | 7.25 | – | – | – | O=C(Nc1cn([C@H]2C[C@@H](OCCF)C2)nc1-c1ccccn1)c1csc(-c2cn[nH]c2)n1 [II-130, N-(1-((1s,3s)-3-(2-fluoroethoxy)cyclobutyl)-3-(pyridin-2-yl)-1H-pyrazol-4-yl)-2-(1H-pyrazol-4-yl)thiazole-4-carboxamide]
5.03 | – | – | 6.44 | – | O=C(Nc1cn(C(=O)N2CCOCC2)nc1-c1ccccn1)c1csc(-c2cn[nH]c2)n1 [II-131, N-(1-(morpholine-4-carbonyl)-3-(pyridin-2-yl)-1H-pyrazol-4-yl)-2-(1H-pyrazol-4-yl)thiazole-4-carboxamide formate]
6.03 | 6.65 | – | – | – | O=C(Nc1cn(C2C=C(F)C2)nc1-c1ccccn1)c1csc(-c2cn[nH]c2)n1 (stereo not drawn) [II-132, N-(1-(3-fluorocyclobut-2-en-1-yl)-3-(pyridin-2-yl)-1H-pyrazol-4-yl)-2-(1H-pyrazol-4-yl)thiazole-4-carboxamide]
– | – | – | 6.50 | 5.82 | O=C(Nc1cn(C2C=C(F)C2)nc1-c1ccccn1)c1csc(-c2cn[nH]c2)n1 (stereo not drawn) [II-133, N-(1-(3-fluorocyclobut-2-en-1-yl)-3-(pyridin-2-yl)-1H-pyrazol-4-yl)-2-(1H-pyrazol-4-yl)thiazole-4-carboxamide formate]
6.65 | 6.99 | – | – | – | O=C(Nc1cn(C2CC(F)(F)C2)nc1-c1ccccn1)c1csc(-c2cn[nH]c2)n1 [II-134, N-(1-(3,3-difluorocyclobutyl)-3-(pyridin-2-yl)-1H-pyrazol-4-yl)-2-(1H-pyrazol-4-yl)thiazole-4-carboxamide]
4.97 | 5.92 | – | – | – | N#Cc1nn([C@H]2C[C@@H](O)C2)cc1NC(=O)c1csc(-c2cn[nH]c2)n1 [II-136, N-(3-cyano-1-((1s,3s)-3-hydroxycyclobutyl)-1H-pyrazol-4-yl)-2-(1H-pyrazol-4-yl)thiazole-4-carboxamide]
7.49 | 7.51 | – | – | – | O=C(Nc1cn(C2CCC3(CC2)OCCO3)nc1-c1ncccc1F)c1csc(-c2cn[nH]c2)n1 [II-140, N-(3-(3-fluoropyridin-2-yl)-1-(1,4-dioxaspiro[4.5]decan-8-yl)-1H-pyrazol-4-yl)-2-(1H-pyrazol-4-yl)thiazole-4-carboxamide]
7.29 | 6.60 | – | – | – | O=C(Nc1cn([C@H]2C[C@H](OCC(F)(F)F)C2)nc1-c1ccccn1)c1csc(-c2cn[nH]c2)n1 [II-141, 2-(1H-pyrazol-4-yl)-N-(3-(pyridin-2-yl)-1-((trans)-3-(2,2,2-trifluoroethoxy)cyclobutyl)-1H-pyrazol-4-yl)thiazole-4-carboxamide]
7.79 | 7.51 | – | – | – | O=C(Nc1cn([C@H]2CC[C@H](O)CC2)nc1-c1ccccn1)c1csc(-c2cn[nH]c2)n1 [II-143, N-(1-((trans)-4-hydroxycyclohexyl)-3-(pyridin-2-yl)-1H-pyrazol-4-yl)-2-(1H-pyrazol-4-yl)thiazole-4-carboxamide]
7.11 | 7.18 | – | – | – | CCO[C@H]1CC[C@H](n2cc(NC(=O)c3csc(-c4cn[nH]c4)n3)c(-c3ccccn3)n2)CC1 [II-145, N-(1-((trans)-4-ethoxycyclohexyl)-3-(pyridin-2-yl)-1H-pyrazol-4-yl)-2-(1H-pyrazol-4-yl)thiazole-4-carboxamide]
6.85 | 6.13 | – | – | – | CCO[C@H]1C[C@@H](n2cc(NC(=O)c3csc(-c4cn[nH]c4)n3)c(-c3ccc(F)cn3)n2)C1 [II-153, N-(1-((cis)-3-ethoxycyclobutyl)-3-(5-fluoropyridin-2-yl)-1H-pyrazol-4-yl)-2-(1H-pyrazol-4-yl)thiazole-4-carboxamide]
7.21 | 6.40 | – | – | – | CCO[C@@H]1C[C@H](n2cc(NC(=O)c3csc(-c4cn[nH]c4)n3)c(-c3ccccn3)n2)C1F (stereo partly drawn) [II-155, N-(1-((cis)-3-ethoxy-2-fluorocyclobutyl)-3-(pyridin-2-yl)-1H-pyrazol-4-yl)-2-(1H-pyrazol-4-yl)thiazole-4-carboxamide]
6.25 | 7.21 | – | – | – | CCO[C@H]1C[C@@H](n2cc(NC(=O)c3csc(-c4cn[nH]c4)n3)c(-c3ncccc3F)n2)C1 [II-157, N-(1-((cis)-3-ethoxycyclobutyl)-3-(3-fluoropyridin-2-yl)-1H-pyrazol-4-yl)-2-(1H-pyrazol-4-yl)thiazole-4-carboxamide]
7.04 | 6.84 | – | – | – | CCO[C@H]1C[C@@H](n2cc(NC(=O)c3csc(-c4cn[nH]c4)n3)c(-c3cc(F)ccn3)n2)C1 [II-158, N-(1-((cis)-3-ethoxycyclobutyl)-3-(4-fluoropyridin-2-yl)-1H-pyrazol-4-yl)-2-(1H-pyrazol-4-yl)thiazole-4-carboxamide]
7.41 | 7.57 | – | – | – | CCO[C@H]1C[C@@H](n2cc(NC(=O)c3csc(-c4cn[nH]c4)n3)c(-c3cccc(F)n3)n2)C1 [II-160, N-(1-((cis)-3-ethoxycyclobutyl)-3-(6-fluoropyridin-2-yl)-1H-pyrazol-4-yl)-2-(1H-pyrazol-4-yl)thiazole-4-carboxamide]
6.32 | 6.95 | – | – | – | O=C(Nc1cn([C@H]2C[C@@H](OCC(F)(F)F)C2)nc1-c1ccccn1)c1csc(-c2cn[nH]c2)n1 [II-161, 2-(1H-pyrazol-4-yl)-N-(3-(pyridin-2-yl)-1-((cis)-3-(2,2,2-trifluoroethoxy)cyclobutyl)-1H-pyrazol-4-yl)thiazole-4-carboxamide]
